According to US12195482B1 (Arcus Biosciences, Inc., priority 2022, dated 2025):
pIC50: −log10 of the molar value.

Legend:
[1] = target: T1, recombinant human MER (Homo sapiens, UniProt Q12866); experiment: Biochemical potency, HTRF KinEASE-TK kinase assay; conditions: 1 nM MER, 700 μM ATP
T1 construct: purchased Invitrogen
T1 sequence (Q12866 21-999): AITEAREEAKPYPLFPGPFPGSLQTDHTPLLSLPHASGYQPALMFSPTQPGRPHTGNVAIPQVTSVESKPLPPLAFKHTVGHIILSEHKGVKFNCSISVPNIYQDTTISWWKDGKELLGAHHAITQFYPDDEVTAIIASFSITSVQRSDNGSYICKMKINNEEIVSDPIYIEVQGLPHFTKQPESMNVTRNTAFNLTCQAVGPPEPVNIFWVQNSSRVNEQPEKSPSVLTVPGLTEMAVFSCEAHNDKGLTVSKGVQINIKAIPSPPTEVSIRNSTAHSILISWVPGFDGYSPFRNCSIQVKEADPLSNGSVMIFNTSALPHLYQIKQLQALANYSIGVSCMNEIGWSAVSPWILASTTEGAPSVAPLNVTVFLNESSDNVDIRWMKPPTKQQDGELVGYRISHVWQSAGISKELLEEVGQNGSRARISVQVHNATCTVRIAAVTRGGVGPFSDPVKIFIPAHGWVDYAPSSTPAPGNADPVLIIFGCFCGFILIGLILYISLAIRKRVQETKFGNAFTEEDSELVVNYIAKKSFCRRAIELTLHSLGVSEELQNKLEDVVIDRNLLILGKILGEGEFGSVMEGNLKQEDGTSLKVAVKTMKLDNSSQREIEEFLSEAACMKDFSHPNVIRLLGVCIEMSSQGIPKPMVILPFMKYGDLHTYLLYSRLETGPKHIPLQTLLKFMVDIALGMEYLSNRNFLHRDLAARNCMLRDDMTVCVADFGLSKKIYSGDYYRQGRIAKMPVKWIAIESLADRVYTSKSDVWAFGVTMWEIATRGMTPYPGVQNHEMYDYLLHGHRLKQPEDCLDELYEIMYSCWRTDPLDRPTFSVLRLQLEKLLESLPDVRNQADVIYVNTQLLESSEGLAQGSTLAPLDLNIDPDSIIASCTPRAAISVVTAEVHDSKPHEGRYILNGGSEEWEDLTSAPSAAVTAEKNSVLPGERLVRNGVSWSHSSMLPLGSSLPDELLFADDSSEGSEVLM
Summary of the method: (§1)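 Enzyme (AXL 5 nM; TYRO3 or MER 1 nM final) was preincubated with compound for 1 h at RT, then reacted for 2 h at RT with 800 nM biotinylated TK substrate and 700 µM ATP in HEPES pH 7.4, MgCl2, DTT, BSA, 1% DMSO. Percent activity came from the HTRF 665/620 ratio.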

[2] = target: T2, recombinant human TYRO3 (Homo sapiens, UniProt Q06418); experiment: Biochemical potency, HTRF KinEASE-TK kinase assay; conditions: 1 nM TYRO3, 700 μM ATP
T2 construct: purchased Invitrogen
T2 sequence (Q06418 41-890): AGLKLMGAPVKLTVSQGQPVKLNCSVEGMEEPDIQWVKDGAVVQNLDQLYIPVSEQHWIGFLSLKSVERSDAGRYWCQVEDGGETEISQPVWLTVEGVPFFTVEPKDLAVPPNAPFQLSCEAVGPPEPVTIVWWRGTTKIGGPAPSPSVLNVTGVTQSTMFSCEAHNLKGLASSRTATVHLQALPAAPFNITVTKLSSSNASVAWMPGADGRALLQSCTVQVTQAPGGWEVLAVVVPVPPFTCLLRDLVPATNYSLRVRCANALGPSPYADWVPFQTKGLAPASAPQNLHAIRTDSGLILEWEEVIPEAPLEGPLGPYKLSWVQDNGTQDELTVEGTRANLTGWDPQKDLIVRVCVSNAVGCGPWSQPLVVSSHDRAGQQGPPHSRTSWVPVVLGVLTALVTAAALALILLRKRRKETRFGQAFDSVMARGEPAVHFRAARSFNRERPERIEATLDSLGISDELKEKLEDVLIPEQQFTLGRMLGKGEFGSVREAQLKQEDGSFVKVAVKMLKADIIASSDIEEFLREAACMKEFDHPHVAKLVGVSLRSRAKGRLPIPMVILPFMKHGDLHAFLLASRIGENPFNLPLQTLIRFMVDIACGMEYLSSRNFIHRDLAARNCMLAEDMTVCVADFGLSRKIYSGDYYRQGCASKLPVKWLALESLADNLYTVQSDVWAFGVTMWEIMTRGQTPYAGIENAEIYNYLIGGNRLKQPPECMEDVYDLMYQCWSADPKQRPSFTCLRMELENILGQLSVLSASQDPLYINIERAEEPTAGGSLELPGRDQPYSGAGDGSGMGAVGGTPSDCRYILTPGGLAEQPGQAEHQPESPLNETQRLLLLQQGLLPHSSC
Summary of the method: as §1

`CC(C)(C#N)c1cccnc1-c1ccc(-c2c[nH]c3ncc(-c4ccc5c(c4)CC[C@@H](N4C6COCC4C6)CC5)cc23)cc1` [Example 21, 2-Methyl-2-[2-[4-[5-[(7S)-7-(3-oxa-6-azabicyclo[3.1.1]heptan-6-yl)-6,7,8,9-tetrahydro-5H-benzo[7]annulen-3-yl]-1H-pyrrolo[2,3-b]pyridin-3-yl]phenyl]pyridin-3-yl]propanenitrile] gave a pIC50 [1] of 6.00 to 7.00 and a pIC50 [2] of over 7.00.

`Cc1cccnc1-c1ccc(-c2c[nH]c3ncc(-c4ccc5c(c4)CC[C@@H](N4C6COCC4C6)CC5)cc23)nc1` [Example 96, 3-Methyl-6′-{5-[(7S)-7-{3-oxa-6-azabicyclo[3.1.1]heptan-6-yl}-6,7,8,9-tetrahydro-5H-benzo[7]annulen-2-yl]-1H-pyrrolo[2,3-b]pyridin-3-yl}-2,3′-bipyridine] gave a pIC50 [1] of 6.00 to 7.00 and a pIC50 [2] of over 7.00.

Compound `Cc1cncnc1-c1ccc(-c2n[nH]c3ncc(-c4ccc5c(c4)CC[C@@H](N4C6COCC4C6)CC5)cc23)cc1` [Example 174, 6-[(7S)-2-{3-[4-(5-Methylpyrimidin-4-yl)phenyl]-1H-pyrazolo[3,4-b]pyridin-5-yl}-6,7,8,9-tetrahydro-5H-benzo[7]annulen-7-yl]-3-oxa-6-azabicyclo[3.1.1]heptane] has a pIC50 [1] of over 7.00 and a pIC50 [2] of over 7.00.

`COc1cccnc1-c1ccc(-c2n[nH]c3ncc(-c4ccc5c(c4)CC[C@@H](N4C6COCC4C6)CC5)cc23)cc1` [Example 166, 6-[(7S)-2-{3-[4-(3-Methoxypyridin-2-yl)phenyl]-1H-pyrazolo[3,4-b]pyridin-5-yl}-6,7,8,9-tetrahydro-5H-benzo[7]annulen-7-yl]-3-oxa-6-azabicyclo[3.1.1]heptane] showed a pIC50 [1] of 6.00 to 7.00 and a pIC50 [2] of over 7.00.

Compound `CN(C)C(=O)c1ccccc1-c1ccc(-c2n[nH]c3ncc(-c4ccc5c(c4)CC[C@@H](N4C6COCC4C6)CC5)cc23)cc1` [Example 12, N,N-Dimethyl-4′-{5-[(7S)-7-{3-oxa-6-azabicyclo[3.1.1]heptan-6-yl}-6,7,8,9-tetrahydro-5H-benzo[7]annulen-2-yl]-2H-pyrazolo[3,4-b]pyridin-3-yl}-[1,1′-biphenyl]-2-carboxamide] has a pIC50 [1] of 6.00 to 7.00 and a pIC50 [2] of 6.00 to 7.00.

With `C[C@@H]1CCCN1[C@@]1(C)CCc2ccc(-c3cnc4[nH]nc(-c5ccc(-c6ncnn6C)cc5)c4c3)cc2CC1` [Example 112, 1-Methyl-5-(4-{5-[(7S)-7-methyl-7-[(2R)-2-methylpyrrolidin-1-yl]-6,7,8,9-tetrahydro-5H-benzo[7]annulen-2-yl]-1H-pyrazolo[3,4-b]pyridin-3-yl}phenyl)-1H-1,2,4-triazole] the pIC50 [1] was over 7.00 and the pIC50 [2] was over 7.00.

`Cc1ncc(C)c(-c2ccc(-c3c[nH]c4ncc(-c5ccc6c(c5)CC[C@@H](N5C7COCC5C7)CC6)cc34)cc2)n1` [Example 123, 6-[(7S)-2-{3-[4-(2,5-Dimethylpyrimidin-4-yl)phenyl]-1H-pyrrolo[2,3-b]pyridin-5-yl}-6,7,8,9-tetrahydro-5H-benzo[7]annulen-7-yl]-3-oxa-6-azabicyclo[3.1.1]heptane] gave a pIC50 [1] of over 7.00 and a pIC50 [2] of over 7.00.

Work on `Cn1nccc1-c1ccc(-c2n[nH]c3ncc(-c4ccc5c(c4)CC[C@@H](N4C6COCC4C6)CC5)cc23)cc1` [Example 109, 6-[(7S)-2-{3-[4-(1-Methyl-1H-pyrazol-5-yl)phenyl]-1H-pyrazolo[3,4-b]pyridin-5-yl}-6,7,8,9-tetrahydro-5H-benzo[7]annulen-7-yl]-3-oxa-6-azabicyclo[3.1.1]heptane] yielded a pIC50 [1] of 6.00 to 7.00 and a pIC50 [2] of 6.00 to 7.00.

`O=C(c1cccnc1-c1ccc(-c2c[nH]c3ncc(-c4ccc5c(c4)CC[C@@H](N4C6COCC4C6)CC5)cc23)cc1)N1CCCC1` [Example 171, 6-[(7S)-2-(3-{4-[3-(Pyrrolidine-1-carbonyl)pyridin-2-yl]phenyl}-1H-pyrrolo[2,3-b]pyridin-5-yl)-6,7,8,9-tetrahydro-5H-benzo[7]annulen-7-yl]-3-oxa-6-azabicyclo[3.1.1]heptane] showed a pIC50 [1] of 6.00 to 7.00 and a pIC50 [2] of 6.00 to 7.00.

`Cc1nc(-c2ccc(-c3n[nH]c4ncc(-c5ccc6c(c5)CC[C@@H](N5C7COCC5C7)CC6)cc34)cc2)n(C)n1` [Example 23, 6-[(7S)-2-{3-[4-(1,3-Dimethyl-1H-1,2,4-triazol-5-yl)phenyl]-1H-pyrazolo[3,4-b]pyridin-5-yl}-6,7,8,9-tetrahydro-5H-benzo[7]annulen-7-yl]-3-oxa-6-azabicyclo[3.1.1]heptane] gave a pIC50 [1] of 6.00 to 7.00 and a pIC50 [2] of over 7.00.

Compound `Cc1nccnc1-c1ccc(-c2n[nH]c3ncc(-c4ccc5c(c4)CC[C@@H](N4C6COCC4C6)CC5)cc23)cc1` [Example 175, 6-[(7S)-2-{3-[4-(3-Methylpyrazin-2-yl)phenyl]-1H-pyrazolo[3,4-b]pyridin-5-yl}-6,7,8,9-tetrahydro-5H-benzo[7]annulen-7-yl]-3-oxa-6-azabicyclo[3.1.1]heptane] has a pIC50 [1] of 6.00 to 7.00 and a pIC50 [2] of 6.00 to 7.00.

With `CC(C)(O)c1ccccc1-c1ccc(-c2n[nH]c3ncc(-c4ccc5c(c4)CC[C@@H](N4C6COCC4C6)CC5)cc23)cn1` [Example 113, 2-[2-(5-{5-[(7S)-7-{3-Oxa-6-azabicyclo[3.1.1]heptan-6-yl}-6,7,8,9-tetrahydro-5H-benzo[7]annulen-2-yl]-1H-pyrazolo[3,4-b]pyridin-3-yl}pyridin-2-yl)phenyl]propan-2-ol] the pIC50 [1] was 6.00 to 7.00 and the pIC50 [2] was 6.00 to 7.00.

In the case of `FC(F)(F)Oc1cccnc1-c1ccc(-c2c[nH]c3ncc(-c4ccc5c(c4)CC[C@@H](N4C6COCC4C6)CC5)cc23)cc1` [Example 103, 6-[(7S)-2-(3-{4-[3-(Trifluoromethoxy)pyridin-2-yl]phenyl}-1H-pyrrolo[2,3-b]pyridin-5-yl)-6,7,8,9-tetrahydro-5H-benzo[7]annulen-7-yl]-3-oxa-6-azabicyclo[3.1.1]heptane], the pIC50 [1] was under 6.00 and the pIC50 [2] was under 6.00.

For `Cc1ccnnc1-c1ccc(-c2n[nH]c3ncc(-c4ccc5c(c4)CC[C@@H](N4C6COCC4C6)CC5)cc23)cc1` [Example 176, 6-[(7S)-2-{3-[4-(4-Methylpyridazin-3-yl)phenyl]-1H-pyrazolo[3,4-b]pyridin-5-yl}-6,7,8,9-tetrahydro-5H-benzo[7]annulen-7-yl]-3-oxa-6-azabicyclo[3.1.1]heptane], the pIC50 [1] was over 7.00 and the pIC50 [2] was over 7.00.

`CN(C)C(=O)c1cccc(-c2ccc(-c3n[nH]c4ncc(-c5ccc6c(c5)CC[C@@H](N5C7COCC5C7)CC6)cc34)cc2)n1` [Example 94, N,N-Dimethyl-6-(4-{5-[(7S)-7-{3-oxa-6-azabicyclo[3.1.1]heptan-6-yl}-6,7,8,9-tetrahydro-5H-benzo[7]annulen-2-yl]-2H-pyrazolo[3,4-b]pyridin-3-yl}phenyl)pyridine-2-carboxamide] showed a pIC50 [1] of under 6.00 and a pIC50 [2] of under 6.00.

Compound `Cc1ccnc(-c2ccc(-c3n[nH]c4ncc(-c5ccc6c(c5)CC[C@@H](N5C7COCC5C7)CC6)cc34)cc2)c1` [Example 117, 6-[(7S)-2-{3-[4-(4-Methylpyridin-2-yl)phenyl]-1H-pyrazolo[3,4-b]pyridin-5-yl}-6,7,8,9-tetrahydro-5H-benzo[7]annulen-7-yl]-3-oxa-6-azabicyclo[3.1.1]heptane] has a pIC50 [1] of under 6.00 and a pIC50 [2] of 6.00 to 7.00.
